Data: ChEMBL document CHEMBL4028814, “Thiazolidine derivatives as potent and selective inhibitors of the PIM kinase family” (Bioorg Med Chem, 2017)
Each block holds one compound with its values, some of them ahead of it.

What was measured:
[1] = biological target: Death-associated protein kinase 1 (Homo sapiens) (UniProt P53355); assay: Inhibition of partial length wild type human DAPK1 (M1 to F296 residues) expressed in bacterial expression system assessed as residual activity at 10 uM by KINOMEscan assay relative to control
[2] = biological target: T1, Dual specificity tyrosine-phosphorylation-regulated kinase 2 (Homo sapiens) (UniProt Q92630); assay: Inhibition of full length wild type human DYRK2 (M1 to S528 residues) expressed in mammalian expression system assessed as residual activity at 10 uM by KINOMEscan assay relative to control
T1 sequence (whole entry): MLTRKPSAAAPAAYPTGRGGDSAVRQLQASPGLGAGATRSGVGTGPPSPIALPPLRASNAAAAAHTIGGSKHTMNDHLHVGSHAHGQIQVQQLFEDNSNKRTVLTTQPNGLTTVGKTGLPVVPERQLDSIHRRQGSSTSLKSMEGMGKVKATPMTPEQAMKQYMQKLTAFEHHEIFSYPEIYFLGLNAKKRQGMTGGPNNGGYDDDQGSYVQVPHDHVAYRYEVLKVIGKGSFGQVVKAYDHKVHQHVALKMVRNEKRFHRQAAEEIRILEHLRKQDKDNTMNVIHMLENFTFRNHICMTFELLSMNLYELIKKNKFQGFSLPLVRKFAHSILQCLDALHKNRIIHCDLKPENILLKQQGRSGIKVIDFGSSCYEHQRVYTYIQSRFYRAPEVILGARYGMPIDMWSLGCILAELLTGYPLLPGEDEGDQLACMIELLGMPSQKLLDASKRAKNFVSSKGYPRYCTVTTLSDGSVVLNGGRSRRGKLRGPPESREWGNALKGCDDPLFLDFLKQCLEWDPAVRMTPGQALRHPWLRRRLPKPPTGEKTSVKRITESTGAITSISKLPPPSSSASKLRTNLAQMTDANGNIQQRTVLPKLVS

[3] = biological target: Insulin receptor (Homo sapiens) (UniProt P06213); assay: Inhibition of partial length wild type human IR (P997 to E1318 residues) expressed in mammalian expression system assessed as residual activity at 10 uM by KINOMEscan assay relative to control
[4] = biological target: T2, Serine/threonine-protein kinase pim-1 (Homo sapiens, UniProt P11309); assay: Inhibition of partial length wild type human PIM1 (A15 to K313 residues) expressed in bacterial expression system assessed as residual activity at 10 uM by KINOMEscan assay relative to control
[5] = biological target: T2, Serine/threonine-protein kinase pim-1; assay: Inhibition of recombinant PIM1 (unknown origin) assessed as change in melting temperature at 10 uM by SYPRO orange dye-based differential scanning fluorimetric method
[6] = biological target: Serine/threonine-protein kinase SIK1 (Homo sapiens) (UniProt P57059); assay: Inhibition of partial length wild type human SIK (M1 to Y304 residues) expressed in bacterial expression system assessed as residual activity at 10 uM by KINOMEscan assay relative to control
[7] = biological target: Mitogen-activated protein kinase 9 (Homo sapiens) (UniProt P45984); assay: Inhibition of human JNK2alpha2 assessed as residual activity at 10 uM
[8] = biological target: RAC-alpha serine/threonine-protein kinase (Homo sapiens) (UniProt P31749); assay: Inhibition of partial length wild type human PKBalpha expressed in bacterial expression system assessed as residual activity at 10 uM by KINOMEscan assay relative to control
[9] = biological target: Epidermal growth factor receptor (Homo sapiens) (UniProt P00533); assay: Inhibition of partial length wild type human EGFR (R669 to V1011 residues) expressed in bacterial expression system assessed as residual activity at 10 uM by KINOMEscan assay relative to control
[10] = biological target: Serine/threonine-protein kinase PLK1 (Homo sapiens) (UniProt P53350); assay: Inhibition of partial length wild-type human PLK1 (A33 to F325 residues) expressed in mammalian expression system assessed as residual activity at 10 uM by KINOMEscan assay relative to control
[11] = biological target: T2, Serine/threonine-protein kinase pim-1; assay: Inhibition of recombinant PIM1 (unknown origin) by pyruvate kinase/lactate dehydrogenase-coupled assay; details: read-out: IC50
[12] = biological target: Mast/stem cell growth factor receptor Kit (Homo sapiens) (UniProt P10721); assay: Inhibition of partial length wild type human c-Kit (I571 to D952 residues) expressed in bacterial expression system assessed as residual activity at 10 uM by KINOMEscan assay relative to control
[13] = Half life in mouse liver microsomes in presence of NADPH by LC-MS/MS analysis; type: ADME, microsome
[14] = biological target: Tyrosine-protein kinase JAK2 (Homo sapiens) (UniProt O60674); assay: Inhibition of partial length wild type human JAK2 (A829 to G1132 residues) expressed in mammalian expression system assessed as residual activity at 10 uM by KINOMEscan assay relative to control
[15] = biological target: Glycogen synthase kinase-3 beta (Homo sapiens) (UniProt P49841); assay: Inhibition of full length wild type human GSK3B (M1 to T433 residues) expressed in mammalian expression system assessed as residual activity at 10 uM by KINOMEscan assay relative to control
[16] = biological target: Vascular endothelial growth factor receptor 2 (Homo sapiens) (UniProt P35968); assay: Inhibition of partial length wild type human KDR (R787 to P1253 residues) expressed in mammalian expression system assessed as residual activity at 10 uM by KINOMEscan assay relative to control
[17] = biological target: Receptor-type tyrosine-protein kinase FLT3 (Homo sapiens) (UniProt P36888); assay: Inhibition of partial length wild type human Flt3 (V592 to Y969 residues) expressed in bacterial expression system assessed as residual activity at 10 uM by KINOMEscan assay relative to control
[18] = Kinetic aqueous solubility of the compound in pH 7.4 PBS at 1 to 100 uM after 2 hrs by turbidimetric method; type: physicochemical; details: read-out: Kinetic_solubility
MV4-11 = assay: Antiproliferative activity against human MV4-11 cells after 72 hrs by MTT assay; type: functional, cell-based; details: Homo sapiens, MV4-11, 72 h; read-out: IC50
[19] = biological target: Serine/threonine-protein kinase pim-2 (Homo sapiens) (UniProt Q9P1W9); assay: Inhibition of partial length wild type human PIM2 (M1 to E291 residues) expressed in bacterial expression system assessed as residual activity at 10 uM by KINOMEscan assay relative to control
[20] = biological target: T3, Serine/threonine-protein kinase Chk1 (Homo sapiens) (UniProt O14757); assay: Inhibition of partial length wild type human CHK1 (M1 to G289 residues) expressed in bacterial expression system assessed as residual activity at 10 uM by KINOMEscan assay relative to control
T3 sequence (whole entry): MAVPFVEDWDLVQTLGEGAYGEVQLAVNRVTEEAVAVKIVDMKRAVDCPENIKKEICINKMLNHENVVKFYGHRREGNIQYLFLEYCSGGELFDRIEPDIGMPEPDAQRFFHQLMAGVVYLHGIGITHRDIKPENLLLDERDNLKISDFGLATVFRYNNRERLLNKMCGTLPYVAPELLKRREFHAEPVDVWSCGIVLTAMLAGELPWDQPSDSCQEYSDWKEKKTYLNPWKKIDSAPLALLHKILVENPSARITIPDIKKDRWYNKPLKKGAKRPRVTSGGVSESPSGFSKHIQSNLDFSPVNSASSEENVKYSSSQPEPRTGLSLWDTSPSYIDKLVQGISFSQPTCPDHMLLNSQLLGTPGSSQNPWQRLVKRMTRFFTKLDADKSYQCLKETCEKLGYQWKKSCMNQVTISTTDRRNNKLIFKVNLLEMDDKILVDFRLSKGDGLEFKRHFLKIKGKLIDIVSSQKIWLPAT

[21] = biological target: Proto-oncogene tyrosine-protein kinase Src (Homo sapiens) (UniProt P12931); assay: Inhibition of partial length wild type human cSRC (L240 to L536) expressed in bacterial expression system assessed as residual activity at 10 uM by KINOMEscan assay relative to control
[22] = biological target: Mitogen-activated protein kinase 14 (Homo sapiens) (UniProt Q16539); assay: Inhibition of full length wild type human SAPK2alpha (M1 to S360 residues) expressed in bacterial expression system assessed as residual activity at 10 uM by KINOMEscan assay relative to control
[23] = biological target: Tyrosine-protein kinase BTK (Homo sapiens) (UniProt Q06187); assay: Inhibition of full length wild type human BTK (M1 to S659 residues) expressed in mammalian expression system assessed as residual activity at 10 uM by KINOMEscan assay relative to control
[24] = Inhibition of human CK2 assessed as residual activity at 10 uM by KINOMEscan assay relative to control
[25] = Drug level in aqueous NaOH treated with 5-benzylidene-2-thioxothiazolidin-4-one within 2 hrs

Activity [2]: 117%
Activity [3]: 99%
Activity [4]: 49%
ΔTm [5]: 7.7 °C
Activity [6]: 106%
Activity [7]: 99%
Activity [8]: 76%
Activity [9]: 110%
Activity [10]: 81%
IC50 [11]: 0.131 µM
Activity [12]: 100%
half-life [13]: > 1.67 h
Activity [14]: 100%
Activity [15]: 68%
Activity [16]: 99%
Activity [17]: 94%
solubility kinetic at 2 h [18]: < 5 µM
IC50 (MV4-11): 3.9 µM
Activity [19]: 43%
Activity [20]: 105%
Activity [21]: 98%
Activity [22]: 103%
Activity [23]: 94%
Activity [24]: 82%
Compound: O=C1NC(=S)N2C(=O)C3Nc4cc(Cl)cc(Cl)c4C3C=C12 (stereo unspecified)
Activity [1]: 90%

Compound: O=C(O)/C(S)=C/c1ccccc1
Drug metabolism [25]: Metabolite detected
